Assay results as given in patent publication US4195183A, “ω-Nor-aromatic-13,14-dehydro-prostaglandins and process for their preparation” (Farmitalia Certo Erba S.p.A., priority 1976, dated 1980).

What was measured:
oestrogenized rat uteri = experiment: rat uterus test (in vitro); settings: relative to PGF2α (conventional value 1), limits in brackets
Experimental: (§1) In the Table the conventional value of 1 was given to the activity of PGF2α in both tests.
**In a 10 ml thermostatic bath held at 29° C., oestrogenized rat
uteri under 0.5 g traction were subjected to carbondioxide in a Dejalon
saline solution. The prepration was left to stabilize for 30 minutes
before the compounds were tested. Response was measured using a isotonic
frontal lever, long enough to amplify the response 4.5 times.

guinea pig ileum = guinea pig ileum test (in vitro); settings: relative to PGF2α (conventional value 1), limits in brackets
Experimental: as §1
*In a 10 ml thermostatic bath held at 35° C., ilea of male guinea
pigs, under 0.5 g traction, were subjected to carbondioxide in a Tyrode
solution; the preparation was left for 30 minutes to stabilize before the
compounds were tested. The response was recorded using a isotonic frontal
lever, long enough to amplify the response 4.5 times.

pregnant rat = experiment: luteolytic activity in the pregnant rat; type: in vivo; settings: pregnant rat at the 9th-10th day of pregnancy; relative to PGF2α (conventional value 1)
From the text: The action selectivity of the compounds of the invention on the miometrium and on the reproductive apparatus is also proven by the remarkable increase of the luteolytic activity in the pregnant rat at the 9th-10th day of pregnancy. In fact, if the conventional value 1 is given to the luteolytic activity of PGF2α, the value of 100 at least is to be given to the luteolytic activity of 13,14-dehydro-17-phenyl-20,19,18-trinor-PGF2α, and the value of 200 to the luteolytic activity of 13,14-dehydro-16-p-fluorophenoxy-20,19,18,17-tetranor-PGF2α.

[1] = biological target: T1, 15-hydroxy-prostaglandin-dehydrogenase drawn from human placenta (Homo sapiens, UniProt P15428); experiment: inhibition of 15-hydroxy-prostaglandin-dehydrogenase, in vitro; type: biochemical; settings: enzyme from human placenta; inhibition partially competitive with respect to PGF2α
T1 construct: drawn from human placenta; from tissue; host or cells: human placenta
T1 sequence (P15428 1-266): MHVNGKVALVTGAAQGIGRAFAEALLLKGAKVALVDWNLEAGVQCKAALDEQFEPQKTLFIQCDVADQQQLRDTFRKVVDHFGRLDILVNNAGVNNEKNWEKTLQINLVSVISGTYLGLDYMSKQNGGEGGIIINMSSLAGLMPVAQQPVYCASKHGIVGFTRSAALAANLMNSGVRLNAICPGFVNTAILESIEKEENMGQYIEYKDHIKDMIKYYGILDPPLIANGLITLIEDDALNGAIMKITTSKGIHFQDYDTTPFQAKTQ
From the text: The compounds of formula (I) furthermore inhibit the use of natural prostaglandins as substrate by the same enzyme.

[2] = tested on: mares, cows, heifers and sowes; experiment: synchronizing the estrum / haematic progesterone levels in farm animals; type: in vivo; settings: for haematic levels of progesterone: after administration of 0.5-3 ml of the 0.5 mg/ml solution; for ability of synchronizing the estrum: solution in aqueous isotonic buffered (pH 7.5) medium, 0.5 mg/ml, mares, cows, heifers and sowes

SMILES	Rat Uterus activity, PGF2α = 1 (oestrogenized rat uteri)	Guinea Pig Ileum activity, PGF2α = 1 (guinea pig ileum)	luteolytic activity, PGF2α = 1 (pregnant rat)	Ki [1]	haematic levels of progesterone [2]	ability of synchronizing the estrum [2]
O=C(O)CCC/C=C\CC1C(O)CC(O)C1C#CC(O)COc1cccc(C(F)(F)F)c1 (stereo not drawn) [5c-9α,11α,15S-trihydroxy-20,19,18,17-tetranor-16-m-trifluoromethylphenoxy-prost-5-en-13-ynoic acid]	3.86 (2.96-5.03)	0.50 (0.05-5)				
O=C(O)CCC/C=C\CC1C(O)CC(O)C1C#CC(O)COc1ccc(F)cc1 (stereo not drawn) [5c-9α,11α,15S-trihydroxy-20,19,18,17-tetranor-16-p-fluorophenoxy-prost-5-en-13-ynoic acid]	1.91 (1.34-2.73)	0.50 (0.05-5)	200			
O=C(O)CCC/C=C\C[C@@H]1[C@@H](C#C[C@@H](O)CCc2ccccc2)[C@H](O)C[C@@H]1O [5c-9α,11α,15S-trihydroxy-20,19,18-trinor-17-phenyl-prost-5-en-13-ynoic acid]	22.74	0.6	≥ 100	130 µM		
CO[C@H](C#C[C@@H]1[C@@H](C/C=C\CCCC(=O)O)[C@@H](O)C[C@H]1O)CCc1ccccc1 [5c-9α,11α-dihydroxy-15S-methoxy-20,19,18-trinor-17-phenyl-prost-5-en-13-ynoic acid]	4.4	0.05				
O=C([O-])CCC/C=C\CC1C(O)CC(O)C1C#CC(O)COc1ccc(F)cc1.[Na+] (stereo not drawn) [13,14-dehydro-16-p-fluorophenoxy-20,19,18,17-tetranor-PGF2α]					pronounced downfall	very good results
O=C([O-])CCC/C=C\CC1C(O)CC(O)C1C#CC(O)CCc1ccccc1.[Na+] (stereo not drawn) [13,14-dehydro-17-phenyl-20,19,18-trinor-PGF2α]					pronounced downfall	very good results
CCCCC[C@H](O)C#C[C@@H]1[C@@H](C/C=C\CCCC(=O)O)[C@@H](O)C[C@H]1O [13,14-dehydro-PGF2α, reference compound]	1.09	0.6				
O=C(O)CCC/C=C\C[C@@H]1[C@@H](/C=C/[C@@H](O)CCc2ccccc2)[C@H](O)C[C@@H]1O [17-phenyl-20,19,18-trinor-PGF2α, 5c,13t-9α,11α,15S-trihydroxy-20,19,18-trinor-17-phenyl-prosta-5,13-dienoic acid, reference compound]	1.54	2.34				
CCCCC[C@H](O)/C=C/[C@@H]1[C@@H](C/C=C\CCCC(=O)O)[C@@H](O)C[C@H]1O [PGF2α, reference compound]	1	1	1			
